# Measured values: US6794495B1, “Composition comprising extensin and, optionally, pectic polysaccharides” (New Nordic Danmark APS, priority 1998, dated 2004)
# System: Tetrahymena thermophila cells
# Experiment: Oligo-cell experiments: cloning efficiency in synthetic nutrient medium
# Assay type: cell-based
# Text: The invention was the result of a laboratory test program using in vivo cell signalling model. The application of a nutritionally complete synthetic (NCS) medium in an oligo-cell experimental research program in which cells demise (or eventually have a prolonged lag-phase) was used for gaining scientific information related to determining the effectiveness of pectins and pectin and extensin combinations as biochemical messengers. An additional control was supplemented with cephalin, that activates cells to multiplication. The effect of an activator added to the NCS medium is compared directly to the control that demises. Apparently, any compound or combination of compounds can be examined in light of the question whether it can activate a cell to survive and/or proliferate. From the beginning of the 1980's the effect of biochemical messengers has been examined with cells grown in an NCS medium free of proteins, lipids, and sugars. Signalling applies to unicellular and multicellular organisms, and the idea of NCS media is that a biochemical messenger can be tested for its biological effect on the cells to gain insight in cellular signalling mechanisms. Biochemical messengers are related to the four biological cornerstones of the eukaryotic cell: survival, proliferation, differentiation, and programmed cell death.
# In oligo-cell experiments, different pectins and combinations of pectins and extensins were examined for their ability to activate Tetrahymena thermophila cells to survival and/or proliferation. The Tetrahymena cell has nutritional requirements similar to those of animals. They contain subcellular organelles such as mitochondria and peroxisomes, which are essential for the development of regulatory mechanisms in cellular metabolism. […]
# Cloning efficiencies were determined from cell multiplications in a synthetic nutrient medium without and with supplements. […]
substance,measurement,setting,value
cephalin,Cloning efficiencies,"50 mg/L in synthetic nutrient medium, experiments with cell multiplication after 30 hours / total experiments, about two cells in two mL, first experiment",15/15
same,Cloning efficiencies,"50 mg/L in synthetic nutrient medium, experiments with cell multiplication after 30 hours / total experiments, about two cells in two mL, second experiment (sugar beet fiber)",15/15
same,Cloning efficiencies,"controls supplemented with cephalin, evaluated after 30 hours",92%
